Reference: ChEMBL document CHEMBL1152256, “Synthesis of Arabino glycosyl triazoles as potential inhibitors of mycobacterial cell wall biosynthesis” (2008)
≈ marks a conversion by molar mass, not a printed value. Calls of active or inactive are those of the source. The rule behind the calls is not given here.

Test system: Mycobacterium tuberculosis
Test: Antimycobacterial activity against Mycobacterium bovis BCG by alamar blue assay
Type: functional
Conditions: variant bovis BCG

Structure (SMILES) | MIC [µg/mL]
CC(C)=CCC/C(C)=C/CC/C(C)=C/COCc1cn([C@@H]2O[C@H](CO)[C@@H](O)[C@@H]2O)nn1 | 62 (≈ 142 µM)
CCCCCCCCCCc1cn([C@@H]2O[C@H](CO)[C@@H](O)[C@@H]2O)nn1 | 250 (≈ 732 µM)
CCCCCCc1cn([C@@H]2O[C@H](CO)[C@@H](O)[C@@H]2O)nn1 | 500 (≈ 1750 µM)
NNC(=O)c1ccncc1 [ISONIAZID] | 0.1 (≈ 0.729 µM)
CCCCCCCCCCCCCCOCc1cn([C@@H]2O[C@H](CO)[C@@H](O)[C@@H]2O)nn1 | 31 (≈ 72.5 µM)
CCCCCCCCc1cn([C@@H]2O[C@H](CO)[C@@H](O)[C@@H]2O)nn1 | 62 (≈ 198 µM)

Test system: Mycobacterium tuberculosis
Test: Antimycobacterial activity against Mycobacterium bovis BCG at 1 mg/mL by alamar blue assay
Type: functional, organism-based
Conditions: variant bovis BCG

Structure (SMILES) | Activity
OC[C@H]1O[C@@H](n2cc(-c3ccccc3)nn2)[C@@H](O)[C@@H]1O | inactive
